Measured values from patent publication US4476122A, “Alkyloximes of 7-amino-thiazolyl-acetamido-cephalosporanic acids” (Roussel Uclaf, priority 1976, dated 1984).
Values after ≈ are worked out from the molar mass of the structure shown. Read-outs that look alike come from different tables or passages of the source.

Assays:
[1] = Hygroscopicity of the crystalline salt; format: physicochemical; conditions: microcrystalline sodium salt
[2] = system: Klebsiella pneumonia 52,145; assay: Experimental infection with Klebsiella pneumonia in mice (C); format: in vivo; conditions: subcutaneous
Procedure: The activity of the products of Examples 4 and 6 was studied on an experimental infection of Klebsiella pneumonia in mice. Groups of 10 male mice weighing 21 g were infected by an intraperitoneal injection of 0.5 ml of a culture in nutrive media of Klebsiella pneumonia 52,145 diluted by 1/1000 with distilled water. The products were administered subcutaneously 30 minutes, 4, 8, 24 and 32 hours after the injection and the number of dead mice was determined during 10th days.

[3] = system: Escherichia coli (T) O26 B6; assay: Experimental infection with Escherichia coli (T) O26 B6 in mice; format: in vivo; conditions: s. c.
Procedure: The products of Example 6 and 10 were studied for their activity against an experimental infection of Escherichia coli in groups of 10 male mice weighing about 22 g. The mice received an intraperitoneal injection of 0.5 ml of a 24 hour old culture in a nutritive media of Escherichia coli (T) O26 B6 of the Pasteur Institute diluted 1/5.5 with distilled water. The test product was administered subcutaneously or orally 1 hour and 5 and 24 hours after the infection and the number of dead was determined during 8 days.

[4] = system: Salmonella typhimurium 420; assay: MIC, liquid medium dilution; format: cell-based; conditions: Salmonella enterica
Procedure: (§1) The method used was a dilution of a liquid medium where a series of tubes received the same quantity of a sterile nutritive media and increasing doses of the test compounds were placed therein. Then each tube was seeded with a bacterial strain and was incubated for 24 or 48 hours at 37° C. in an oven. The increasing inhibition was determined by transillumination to determine the minimum inhibiting concentration (MIC in μg/ml) and the results are reported in the following Tables.

[5] = system: Staphylococcus aureus UC 1 128 Pen-Resistant; assay: MIC, liquid medium dilution; format: cell-based
Procedure: as §1

[6] = system: Providencia Du 48; assay: MIC, liquid medium dilution; format: cell-based; conditions: read-out: MIC
Procedure: as §1

[7] = system: Klebsiella pneumoniae Exp. 52 145; assay: MIC, liquid medium dilution; format: cell-based; conditions: read-out: MIC
Procedure: as §1

[8] = system: Streptococcus pyogenes A 561; assay: MIC, liquid medium dilution; format: cell-based; conditions: read-out: MIC
Procedure: as §1

[9] = system: Streptococcus faecalis 5 432; assay: MIC, liquid medium dilution; format: cell-based
Procedure: as §1

[10] = system: Escherichia Coli Sensitive Tetracycline ATCC 9 637; assay: MIC, liquid medium dilution; format: cell-based
Procedure: as §1

[11] = system: Streptococcus faecalis 99 F 74; assay: MIC, liquid medium dilution; format: cell-based; conditions: Enterococcus faecalis
Procedure: as §1

[12] = system: Escherichia Coli Exp. TO26 B6; assay: MIC, liquid medium dilution; format: cell-based
Procedure: as §1

[13] = system: Klebsiella pneumoniae 2 536 Resistant Gentamicine; assay: MIC, liquid medium dilution; format: cell-based
Procedure: as §1

[14] = system: Proteus vulgaris (indol+) A 232; assay: MIC, liquid medium dilution; format: cell-based
Procedure: as §1

[15] = system: Escherichia Coli Resistant Tetracycline ATCC 11 303; assay: MIC, liquid medium dilution; format: cell-based; conditions: read-out: MIC
Procedure: as §1

[16] = system: Escherichia Coli Resistant Gentamicine, Tobramycine R 55 123 D; assay: MIC, liquid medium dilution; format: cell-based
Procedure: as §1

[17] = system: Bacillus subtilis ATCC 6 633; assay: MIC, liquid medium dilution; format: cell-based
Procedure: as §1

[18] = system: Serratia Resistant Gentamicine 2 532; assay: MIC, liquid medium dilution; format: cell-based
Procedure: as §1

[19] = system: Staphylococcus aureus ATCC 6 538 Pen-Sensitive; assay: MIC, liquid medium dilution; format: cell-based
Procedure: as §1

[20] = system: Proteus mirabilis (indol-) A 235; assay: MIC, liquid medium dilution; format: cell-based
Procedure: as §1

[21] = system: Enterobacter cloacae 681; assay: MIC, liquid medium dilution; format: cell-based
Procedure: as §1

[22] = system: Staphylococcus aureus exp. n° 54 146; assay: MIC, liquid medium dilution; format: cell-based
Procedure: as §1

Which hygroscopicity [1] does the source give for CO/N=C(\C(=O)NC1C(=O)N2C(C(=O)O)=C(CSC(C)=O)CSC12)c1csc(N)n1 (centres unmarked) [Example 22, sodium 3-acetylthiomethyl-7-[{2-(2-amino-4-thiazolyl)-2-methoxyiminoacetyl}amino]-ceph-3-eme-4-carboxylate] here?
The hygroscopicity was “non-hydroscopic”.

With CO/N=C(\C(=O)NC1C(=O)N2C(C(=O)O)=C(CSC(C)=O)CSC12)c1csc(N)n1 (centres unmarked) [Example 6, 3-acetylthiomethyl-7-[{2-(2-amino-4-thiazolyl)-2-methoxyiminoacetyl}amino]-ceph-3-eme-4-carboxylic acid] as the molecule, how does the “Mice alive on the 10th day” value ([2]; 5 × 0,5 mg) read?
The value was 10/10.

What about the “Mice alive on the 10th day” value ([2]; 5 × 0,25 mg) of the same molecule?
The value was 10/10.

And the “Mice alive on the 10th day” value ([2]; 5 × 1 mg)?
Its value is 10/10.

What about the “Mice surviving on the 8th day” value ([3]; 3 × 0,1 mg) of the same molecule?
The value was 5/10.

And the “Mortality after 5 H 30 (number of dead of 10)” value ([3]; 3 × 0,1 mg)?
The value was 1.

And the “Mortality after 21 H 30 (number of dead of 10)” value ([3]; 3 × 0,1 mg)?
The value was 1.

What about the “Mortality after 24 H (number of dead of 10)” value ([3]; 3 × 0,1 mg) of the same molecule?
Its value is 1.

And the “Mortality after 47 H (number of dead of 10)” value ([3]; 3 × 0,1 mg)?
Its value is 2.

And the “Mice surviving on the 8th day” value ([3]; 3 × 0,2 mg)?
The value was 7/10.

What about the “Mortality after 21 H 30 (number of dead of 10)” value ([3]; 3 × 0,2 mg) of the same molecule?
Its value is 1.

And the “Mortality after 47 H (number of dead of 10)” value ([3]; 3 × 0,2 mg)?
The value was 1.

And the “Mortality after 70 H (number of dead of 10)” value ([3]; 3 × 0,2 mg)?
Its value is 1.

What about the “Mice surviving on the 8th day” value ([3]; 3 × 0,3 mg) of the same molecule?
Its value is 10/10.

What about the “Mice surviving on the 8th day” value ([3]; 3 × 0,05 mg) of the same molecule?
The value was 4/10.

And the “Mortality after 5 J (number of dead of 10)” value ([3]; 3 × 0,05 mg)?
The value was 1.

What about the “Mortality after 21 H 30 (number of dead of 10)” value ([3]; 3 × 0,05 mg) of the same molecule?
The value was 4.

And the “Mortality after 54 H (number of dead of 10)” value ([3]; 3 × 0,05 mg)?
Its value is 1.

What about the MIC ([4]; 24 h) of the same molecule?
Its MIC is 0.4 µg/mL (≈ 0.848 µM).

What about the MIC ([4]; 48 h) of the same molecule?
The MIC was 0.4 µg/mL (≈ 0.848 µM).

And the MIC ([5]; UC1, 24 h)?
Its MIC is 5 µg/mL (≈ 10.6 µM).

What about the MIC ([5]; UC1, 48 h) of the same molecule?
Its MIC is 5 µg/mL (≈ 10.6 µM).

What about the MIC ([6]; DU48, 24 h) of the same molecule?
Its MIC is 10 µg/mL (≈ 21.2 µM).

What about the MIC ([6]; DU48, 48 h) of the same molecule?
Its MIC is 10 µg/mL (≈ 21.2 µM).

And the MIC ([7]; EXP.52145, 24 h)?
Its MIC is 0.1 µg/mL (≈ 0.212 µM).

And the MIC ([7]; EXP.52145, 48 h)?
The MIC was 0.1 µg/mL (≈ 0.212 µM).

What about the MIC ([8]; A561, 24 h) of the same molecule?
The MIC was no more than 0.02 µg/mL.

What about the MIC ([8]; A561, 48 h) of the same molecule?
Its MIC is no more than 0.02 µg/mL.

What about the MIC ([9]; Enterococcus faecalis, 5432, 24 h) of the same molecule?
The MIC was 5 µg/mL (≈ 10.6 µM).

What about the MIC ([9]; Enterococcus faecalis, 5432, 48 h) of the same molecule?
The MIC was 5 µg/mL (≈ 10.6 µM).

And the MIC ([10]; ATCC9, 24 h, read-out: MIC)?
The MIC was 0.6 µg/mL (≈ 1.27 µM).

What about the MIC ([10]; ATCC9, 48 h) of the same molecule?
The MIC was 0.6 µg/mL (≈ 1.27 µM).

What about the MIC ([11]; 99F74, 24 h) of the same molecule?
The MIC was 5 µg/mL (≈ 10.6 µM).

And the MIC ([11]; 99F74, 48 h)?
Its MIC is greater than 40 µg/mL.

What about the MIC ([12]; 24 h) of the same molecule?
Its MIC is 0.4 µg/mL (≈ 0.848 µM).

What about the MIC ([12]; 48 h) of the same molecule?
The MIC was 0.4 µg/mL (≈ 0.848 µM).

And the MIC ([13]; 24 h)?
The MIC was 1 µg/mL (≈ 2.12 µM).

What about the MIC ([13]; 48 h) of the same molecule?
Its MIC is 2 µg/mL (≈ 4.24 µM).

What about the MIC ([14]; 24 h) of the same molecule?
Its MIC is 5 µg/mL (≈ 10.6 µM).

And the MIC ([14]; 48 h, read-out: MIC)?
The MIC was 10 µg/mL (≈ 21.2 µM).

And the MIC ([15]; ATCC11, 24 h)?
Its MIC is 0.1 µg/mL (≈ 0.212 µM).

What about the MIC ([15]; ATCC11, 48 h) of the same molecule?
The MIC was 0.1 µg/mL (≈ 0.212 µM).

And the MIC ([16]; 24 h, read-out: MIC)?
Its MIC is 0.6 µg/mL (≈ 1.27 µM).

And the MIC ([16]; 48 h)?
Its MIC is 0.6 µg/mL (≈ 1.27 µM).

What about the MIC ([17]; ATCC6, 24 h) of the same molecule?
The MIC was 1 µg/mL (≈ 2.12 µM).

And the MIC ([17]; ATCC6, 48 h)?
Its MIC is 2 µg/mL (≈ 4.24 µM).

And the MIC ([18]; 24 h)?
Its MIC is 1 µg/mL (≈ 2.12 µM).

What about the MIC ([18]; 48 h) of the same molecule?
The MIC was 2 µg/mL (≈ 4.24 µM).

What about the MIC ([19]; ATCC6, 24 h) of the same molecule?
The MIC was 2 µg/mL (≈ 4.24 µM).

And the MIC ([19]; ATCC6, 48 h)?
The MIC was 2 µg/mL (≈ 4.24 µM).

What about the MIC ([20]; 24 h) of the same molecule?
The MIC was 0.05 µg/mL (≈ 0.106 µM).

What about the MIC ([20]; 48 h, read-out: MIC) of the same molecule?
The MIC was 0.1 µg/mL (≈ 0.212 µM).

What about the MIC ([21]; Enterobacter cloacae, 681, 24 h, read-out: MIC) of the same molecule?
The MIC was 10 µg/mL (≈ 21.2 µM).

And the MIC ([21]; Enterobacter cloacae, 681, 48 h)?
Its MIC is 20 µg/mL (≈ 42.4 µM).

What about the MIC ([22]; 24 h) of the same molecule?
The MIC was 2 µg/mL (≈ 4.24 µM).

And the MIC ([22]; 48 h)?
The MIC was 2 µg/mL (≈ 4.24 µM).
